Peptide text beside a SMILES is read from it.
How the values were obtained:
white mongrel rats = details: rat, in vivo
white mongrel male mice = test: Acute toxicity, Kerber's method, single intramuscular dose

**Q.** What does the source list for `N[C@@H](CCC(=O)O)C(=O)N[C@@H](Cc1c[nH]c2ccccc12)C(=O)O` [L-Glu-L-Trp, L-glutamic-L-tryptophan acid] (H-Glu-Trp-OH; N-terminus and C-terminus assumed)?
**A.** Side effects from long-term administration (white mongrel rats): absence of side effects; Acute toxic reactions (white mongrel male mice; doses exceeding the therapeutic dose by several thousand times): does not cause acute toxic reactions; Death of animals (white mongrel male mice; mice, single i.m. 1, 2, 3, 4, 5 mg/kg, within 72 hours and further 14 days): Death of animals did not take place in any of the groups
